Our source for the IC50 values is patent US20260083750A1, “SMALL MOLECULE INHIBITORS OF KRAS PROTEINS” (MERCK SHARP & DOHME LLC, priority 2022, published 2026).

Molecules are shown by their SMILES.

Broadly, the IC50 is the concentration needed to halve the response being measured.

In one assay the target is T1, KRAS-G12D (Homo sapiens, UniProt P01116, G12D).
T1 construct: N-terminal biotin-acceptor peptide […]
The experiment in a line: SOS-catalyzed nucleotide exchange assay (Procedure A, TR-FRET). It is filed as biochemical. Particulars: 60 min preincubation, SOS + GTP, read-out: KRAS G12D GNE IC50. From the text:
(§1) Procedure for SOS-Catalyzed Nucleotide Exchange Assay for KRAS-G12C/D/V, G13D, HRAS, and NRAS (Procedure A)
(§2) Recombinant KRAS-G12C protein used in this assay has an additional triple mutation (C51S/C80L/C118S), whereas KRAS-G12D/V, G13D, HRAS and NRAS are in context of their WT protein sequence background. Specifically, the SOS-catalyzed nucleotide exchange assay utilizes a preformed TR-FRET complex containing a specific biotinylated RAS protein (KRAS-G12C/V/D, G13D, HRAS, NRAS; described above) with Bodipy-GDP, and Terbium-streptavidin. Compounds are preincubated with this complex for 60 minutes. Subsequently, recombinant human SOS protein and unlabeled GTP are added to initiate the exchange reaction. Small molecule inhibitors stabilize the Bodipy-GDP complex whereas the untreated protein rapidly exchanges Bodipy-GDP for unlabeled GTP resulting in reduced TR-FRET signal.
(§3) To assemble the preformed TR-FRET complexes, each biotinylated RAS protein is diluted to 2 μM in an EDTA Buffer (20 mM HEPES pH 7.5, 50 mM sodium chloride, 10 mM EDTA, and 0.01% Tween) and incubated at room temperature for one hour. This mixture is then further diluted to 90 nM in an Assay Buffer (20 mM HEPES pH 7.5, 150 mM sodium chloride, 10 mM magnesium chloride, and 0.005% Tween) containing 15 nM of Terbium-Streptavidin (Invitrogen, catalog #PV3577) and 900 nM of Bodipy-GDP (Invitrogen, catalog #G22360) and incubated at room temperature for six hours. It should be noted that this preformed TR-FRET complex for each of the RAS protein were made ahead of time, aliquoted and stored at −80° C. until the day of the experiment.
(§4) Each test compound (10 mM stock in DMSO) is diluted in DMSO to make a final-10-point, 3-fold dilution and is acoustically dispensed into a 384-well assay plate (Corning, catalog #3820) using an Echo 550 (Labcyte). Each well of the assay plate receives 3 μL of a specific 3× RAS preformed TR-FRET complex and 3 μL of Assay Buffer and is incubated at room temperature for 60 minutes (preincubation time). Each well then receives 3 μL of 3× recombinant human SOS protein and GTP (Sigma, G8877) in Assay Buffer and is incubated at room temperature for 30 minutes (G13D), 60 minutes (G12C/D, H/NRAS) or 90 minutes for G12V. The final reaction in each well of […] consists of 3 mM GTP, specific Ras and SOS proteins in the following concentrations: KRAS-G12C/SOS=3 nM/40 nM, KRAS-G12D/SOS=1 nM/40 nM, KRAS-G12V/SOS=1.25 nM/160 nM, KRAS-G13D/SOS=1.25 nM/0 nM, HRAS & NRAS=1.25 nM/40 nM.
(§5) The time-resolved fluorescence resonance energy transfer (TR-FRET) signal is measured on an Envision (PerkinElmer) plate reader: Excitation filter=340 nm; emission1=495 nm; emission2=520 nm; dichroic mirror=D400/D505; delay time=[…]. The signal of each well is determined as the ratio of the emission at 520 nm to that at 495 nm. […] The apparent effect as a function of compound concentration is fit to a four-parameter logistic equation.

A further assay has as its target T2, KRAS-G12V (Homo sapiens, UniProt P01116, G12V).
T2 construct: N-terminal biotin-acceptor peptide […]
The assay is described as above. Conditions: 60 min preincubation, SOS + GTP, read-out: KRAS G12V GNE IC50. It is filed as biochemical.
From the text: as §1, §2, §3, §4, §5

The test system of assay [1] is PANC08.13 cells (homozygous KRAS-G12D activating mutation). The experiment in a line: Cellular phospho-ERK assay in G12D cell line. It is filed as cell-based. Particulars: Homo sapiens, PANC-08-13, 2 hours compound incubation, ratio of p-ERK vs. total ERK, read-out: PANC 0813 pERK IC50. On the procedure:
(§6) Procedure for Cellular Phospho-ERK Assay in G12D and G12V Cell Lines
(§7) PANC08.13 cells (ATCC® CRL-2551™), containing homozygous KRAS-G12D activating mutation, were cultured in growth medium made of RPMI1640-GlutaMAX™—I (ThermoFisher Scientific 61870) containing 15% heat inactivated fetal bovine serum (ThermoFisher Scientific 10091148)). SW620 cells (ATCC® […]), containing homozygous KRAS-G12V activating mutation, were cultured in growth medium that contains RPMI 1640-GlutaMAX™—I (ThermoFisher Scientific 61870) containing 10% heat inactivated fetal bovine serum (ThermoFisher Scientific 10091148).
(§8) Cells for the assay were harvested in growth medium after TrypLE (ThermoFisher scientific 12604021) digestion and were seeded in a 384-well collagen coated cell culture plate (Corning 356702) at a density of 10,000-15,000 cells/20 uL/well, and incubated at 37° C., 5% CO2 overnight. The compound (with 10 mM stock concentration) dose-response titrations were prepared [30 μM final ERK detection assay concentration and 1:3 dilutions, 10-point dose response] and appropriate amounts (270 nL) of test compounds were dispensed in a 384-well intermediate plate using an Echo 550 liquid handler. 30 uL/well of RPMI medium 1640-GlutaMAX™—I was added to the intermediate plate and the contents of the intermediate plate (10 uL/well) were then transferred to the 384-well collagen coated cell culture plate, which was incubated at 37° C., 5% CO2 for 2 hours. After removal of medium from the collagen coated cell culture plate, cells were lysed in lysis buffer from Alpha SureFire® Ultra™ Multiplex p-ERK and total ERK assay kit (PerkinElmer MPSU-PTERK) containing Halt™ Protease and Phosphatase inhibitor cocktail (ThermoFisher Scientific 78446) at room temperature with constant shaking at 300 rpm for 30 minutes. The cell lysates were then transferred to an OptiPlate-384 plate (PerkinElmer 6005620), and the phosphorylation of ERK (p-ERK) and total ERK levels were detected by Alpha SureFire® Ultra™ Multiplex p-EEK kit and total ERK assay kit (PerkinElmer MPSU-PTERK) following the manufacturer's protocol. Assay plates were read on a EnVision Multimode Plate Reader (PerkinElmer), and the ratio of p-ERK vs. total ERK in each well was used as the final readout. Dose response curves were analyzed using a 4-parameter logistic model to calculate IC50 values using Spotfire software.

Assay [2] has as its system SW620 cells (homozygous KRAS-G12V activating mutation). The experiment in a line: Cellular phospho-ERK assay in G12V cell line. The class given is cell-based. Particulars: Homo sapiens, SW-620, 2 hours compound incubation, ratio of p-ERK vs. total ERK, read-out: SW620 pERK IC50. On the procedure:
as §6, §7, §8

Assay [3] has as its target T3, KRAS-G12C (C51S/C80L/C118S) (Homo sapiens, UniProt P01116, C118S/C51S/C80L/G12C).
T3 construct: N-terminal biotin-acceptor peptide […]
Description: SOS-catalyzed nucleotide exchange assay (Procedure A, TR-FRET). It is filed as biochemical. Particulars: 60 min preincubation, SOS + GTP, read-out: KRAS G12C GNE IC50.
From the text: as §1, §2, §3, §4, §5
(Time-resolved FRET reads energy transfer from a long-lived donor to a nearby acceptor.)

The target of the next assay is T4, KRAS-G13D (Homo sapiens, UniProt P01116, G13D).
T4 construct: N-terminal biotin-acceptor peptide […]
Described as above. It is filed as biochemical. Conditions: 60 min preincubation, GTP, read-out: KRAS G13D GNE IC50.
From the text: as §1, §2, §3, §4, §5

A further assay concerns the target HRAS (Homo sapiens, UniProt P01112). Described as above. Conditions: 60 min preincubation, SOS + GTP, read-out: HRAS GNE IC50. The class given is biochemical.
From the text: as §1, §2, §3, §4
(§9) The time-resolved fluorescence resonance energy transfer (TR-FRET) signal is measured on an Envision (PerkinElmer) plate reader: Excitation filter=340 nm; emission1=495 nm; emission2=520 nm; dichroic mirror=D400/D505; delay time=[…]. The signal of each well is determined as the ratio of the emission at 520 nm to that at 495 nm. Percent effect of each well is determined after normalization to control wells containing DMSO (no effect) or a saturating concentration of inhibitor (max effect). The apparent effect as a function of compound concentration is fit to a four-parameter logistic equation.

For the next assay, the target named is NRAS (Homo sapiens, UniProt P01111). The description is as above. The class given is biochemical. Particulars: 60 min preincubation, SOS + GTP, read-out: NRAS GNE IC50.
From the text: as §1, §2, §3, §4, §9

Sequence of HRAS (P01112 with tags, fused parts or gaps): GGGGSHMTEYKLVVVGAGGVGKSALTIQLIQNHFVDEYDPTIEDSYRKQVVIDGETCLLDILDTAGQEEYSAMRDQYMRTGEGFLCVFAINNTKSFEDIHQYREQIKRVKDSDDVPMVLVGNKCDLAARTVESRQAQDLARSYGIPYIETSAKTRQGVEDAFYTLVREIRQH
T3 sequence (P01116 with tags, fused parts or gaps isoform P01116-2 G12C/C51S/C80L/C118S): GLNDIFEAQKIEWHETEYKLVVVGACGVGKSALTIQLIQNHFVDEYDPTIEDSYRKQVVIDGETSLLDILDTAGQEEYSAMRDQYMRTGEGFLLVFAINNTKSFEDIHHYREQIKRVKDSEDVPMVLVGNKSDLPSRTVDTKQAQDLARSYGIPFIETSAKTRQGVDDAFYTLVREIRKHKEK
T1 sequence (P01116 with tags, fused parts or gaps isoform P01116-2 G12D): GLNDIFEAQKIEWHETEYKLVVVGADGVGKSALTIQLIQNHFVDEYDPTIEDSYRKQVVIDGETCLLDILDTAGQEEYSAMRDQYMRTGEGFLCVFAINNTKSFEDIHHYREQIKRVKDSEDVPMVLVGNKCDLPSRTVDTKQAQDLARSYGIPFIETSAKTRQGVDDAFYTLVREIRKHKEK
T2 sequence (P01116 with tags, fused parts or gaps isoform P01116-2 G12V): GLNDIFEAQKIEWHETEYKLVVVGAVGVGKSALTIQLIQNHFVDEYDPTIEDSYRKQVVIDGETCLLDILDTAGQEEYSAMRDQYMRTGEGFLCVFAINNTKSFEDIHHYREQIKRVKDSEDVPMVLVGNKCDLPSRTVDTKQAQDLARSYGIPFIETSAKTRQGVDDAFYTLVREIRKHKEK
Sequence of NRAS (P01111 with tags, fused parts or gaps): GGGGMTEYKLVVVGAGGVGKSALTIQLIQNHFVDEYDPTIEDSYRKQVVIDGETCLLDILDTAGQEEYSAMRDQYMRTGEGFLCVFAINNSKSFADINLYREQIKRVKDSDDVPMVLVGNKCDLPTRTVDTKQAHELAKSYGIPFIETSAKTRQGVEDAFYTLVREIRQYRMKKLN
T4 sequence (P01116 with tags, fused parts or gaps isoform P01116-2 G13D): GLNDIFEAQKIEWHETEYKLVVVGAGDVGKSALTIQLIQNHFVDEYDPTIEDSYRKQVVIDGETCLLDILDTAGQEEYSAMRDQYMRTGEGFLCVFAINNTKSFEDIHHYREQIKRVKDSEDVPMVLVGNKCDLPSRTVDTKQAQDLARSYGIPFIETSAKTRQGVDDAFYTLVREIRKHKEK

For the compound `CCNC[C@@]1(COc2nc(N3CCCOCC3)c3cc(Cl)c(-c4ccc(F)c5sc(N)c(C#N)c45)c(F)c3n2)CC1(F)F` [compound 30, 2-amino-4-(6-chloro-2-(((R)-1-((ethylamino)methyl)-2,2-difluorocyclopropyl)methoxy)-8-fluoro-4-(1,4-oxazepan-4-yl)quinazolin-7-yl)-7-fluorobenzo[b]thiophene-3-carbonitrile], the IC50 amounted to 206 nM at KRAS-G12D, 33 nM on KRAS-G12V, 849 nM in assay [1] and 305 nM in assay [2].

In the case of `N#Cc1c(N)sc2c(F)ccc(-c3c(C(F)(F)F)cc4c(N5CCCOCC5)nc(OC[C@@]56CCCN5C[C@H](F)C6)nc4c3F)c12` (single isomer, unassigned) [Ex. 35], the IC50 in assay [3] is 5.51 nM; at KRAS-G12D, 2.33 nM; on KRAS-G12V, 1.24 nM; on KRAS-G13D, 1.13 nM; on HRAS it was 1.17 µM; at NRAS, more than 11.1 µM. Further, the IC50 in assay [1] was found to be 12.2 nM.

For the compound `COCC1CCOCCN1c1nc(OC[C@@]23CCCN2C[C@H](F)C3)nc2c(F)c(-c3ccc(F)c4sc(N)c(C#N)c34)c(Cl)cc12` (stereo partly drawn) [compound 16, 2-amino-4-(6-chloro-8-fluoro-2-(((2R,7aS)-2-fluorotetrahydro-1H-pyrrolizin-7a(5H)-yl)methoxy)-4-(5-(methoxymethyl)-1,4-oxazepan-4-yl)quinazolin-7-yl)-7-fluorobenzo[b]thio-phene-3-carbonitrile], the IC50 is 14.7 nM in assay [3]; 25.2 nM on KRAS-G12D; 9.58 nM on KRAS-G12V; 10.1 nM at KRAS-G13D; more than 11.1 µM at HRAS; more than 11.1 µM on NRAS. In assay [1], the IC50 is 274 nM.

With `CN1CCC[C@H]1COc1nc(N2CCCOCC2)c2cc(Br)c(-c3ccc(F)c4sc(N)c(C#N)c34)c(F)c2n1` [compound 38, 2-amino-4-(6-bromo-8-fluoro-2-(((S)-1-methylpyrrolidin-2-yl)methoxy)-4-(1,4-oxazepan-4-yl)quinazolin-7-yl)-7-fluorobenzo[b]thiophene-3-carbonitrile], the 50% inhibitory concentration (IC50) is 30.5 nM in assay [3]; 47.1 nM on KRAS-G12D; 8.97 nM on KRAS-G12V; 17.2 nM at KRAS-G13D; more than 11.1 µM on HRAS; more than 11.1 µM at NRAS. In addition, the IC50 in assay [1] turned out to be 300 nM.

On to `C[C@H]1CCOCCN1c1nc(OC[C@]2(CN(C)C)CC2(F)F)nc2c(F)c(-c3ccc(F)c4sc(N)c(C#N)c34)ncc12` [compound 22, 2-amino-4-(2-(((R)-1-((dimethylamino)meth-yl)-2,2-difluorocyclopropyl)methoxy)-8-fluoro-4-((S)-5-methyl-1,4-oxazepan-4-yl)pyrido[4,3-d]pyrimidin-7-yl)-7-fluorobenzo[b]thiophene-3-carbonitrile], for which the IC50 in assay [3] is 22.6 nM; at KRAS-G12D, 253 nM; on KRAS-G12V, 49.5 nM; at KRAS-G13D, 44.8 nM; on HRAS, more than 11.1 µM; at NRAS, more than 11.1 µM. Besides, the IC50 in assay [1] worked out at 413 nM.

For `N#Cc1c(N)sc2c(F)ccc(-c3c(Br)cc4c(N5C6COCC5C6)nc(OC[C@@]56CCCN5C[C@H](F)C6)nc4c3F)c12` [Ex. 36, 4-(4-(3-oxa-6-azabicyclo[3.1.1]heptan-6-yl)-6-bromo-8-fluoro-2-(((2R,7aS)-2-fluorotetrahydro-1H-pyrrolizin-7a(5H)-yl)methoxy)quinazolin-7-yl)-2-amino-7-fluorobenzo[b]thiophene-3-carbonitrile], the IC50 in assay [3] was 37.1 nM; on KRAS-G12D it was 9.34 nM; on KRAS-G13D, 20.2 nM; at HRAS it was more than 11.1 µM; on NRAS, more than 11.1 µM; in assay [1] it was 103 nM.

`N#Cc1c(N)sc2c(F)ccc(-c3c(Cl)cc4c(N5CCOCCC5C5CC5)nc(OC[C@@]56CCCN5C[C@H](F)C6)nc4c3F)c12` (stereo partly drawn) [compound 17, 2-amino-4-(6-chloro-4-(5-cyclopropyl-1,4-oxazepan-4-yl)-8-fluoro-2-(((2R,7aS)-2-fluorotetrahydro-1H-pyrrolizin-7a(5H)-yl)methoxy)quinazo-lin-7-yl)-7-fluorobenzo[b]thio-phene-3-carbonitrile]: the IC50 was 51.1 nM in assay [3]; 188 nM on KRAS-G12D; 44.1 nM at KRAS-G12V; 63.7 nM on KRAS-G13D; more than 11.1 µM on HRAS; more than 11.1 µM on NRAS. In addition, the IC50 in assay [1] was determined as 2260 nM.
